Molecules are shown by their SMILES.

The experiment has as its system PC-3 (AR negative) xenografts. The experiment can be described thus: PC-3 xenograft in SCID mice. In kind it is in vivo. Particulars: 60 mg/kg bw. Here is the method: FIG. 8. Pharmacological inhibition of HSP60-ClpP inhibit oncogenic signaling and PCa tumor growth in vivo. (A) LNCaP, PC-3 and 22RV1 cells were treated with DCEM1 and analyzed for c-Myc and EZH2 protein expression after 24 hours of treatment. (B) LNCaP, 22RV1 and VCaP cells were treated with DCEM1 and analyzed for AR and PSA protein expression after 24 hours of treatment. (C-D) 22RV1 cells (1×10^6 cells) were mixed with matrigel (50:50 v/v) and injected into each flank of SCID mice and treated with DCEM1 (60 mg/kg bw) through IP route twice weekly and tumors were harvested, photographed (C) and weighed (D) at 30 days. (E) DEVDase activity were analyzed in 22RV1 xenograft tumor tissue following DCEM1 treatment and represented as fold change compared to control. (F) 22RV1 xenograft tissue were sectioned and expression of ki67, c-Myc and EZH2 proteins were analyzed by Immunohistochemistry as described in material and methods. (G-H) PC-3 cells (1×10^6 cells) were mixed with matrigel (50:50 v/v) and injected into each flank of SCID mice and treated with DCEM1 (60 mg/kg bw) through IP route twice weekly and tumors were harvested, photographed (G) and weighed (H) at 35 days. (I) DEVDase activity were analyzed in PC-3 xenograft tumor tissue following DCEM1 treatment and represented as fold change compared to control. (J) PC-3 xenograft tumor tissue were fixed and sections were used for in situ PLA to analyze HSP60-ClpP interaction in these tissue samples. […] All animals were sacrificed at 16 weeks of age and prostate tissue and tumors were harvested, whole cell lysate were prepared and analyzed for HSP60 and ClpP expression (N); c-Myc and EZH2 expression (0) and SYP and CK 8/18 expression (P) by immunoblotting. […]
Ablation of HSP60-ClpP interaction by DCEM1 downregulates c-Myc, EZH2 and AR as well as inhibits tumor growth in vivo. […] The effect of DCEM1 on 22RV1 (AR positive) and PC-3 (AR negative) xenografts growth in SCID mice was analyzed. […]

Turning to `CCOc1cc(CNCc2nc3ccccc3[nH]2)ccc1OCc1cccs1` [DCEM1], the “HSP60-ClpP interaction by in situ PLA in PC-3 xenograft tumors” value is on record as “inhibited HSP60-ClpP interaction”. Besides, for the setting “IP, twice weekly”, the “caspase-3 (DEVDase) activity in PC-3 xenograft tumors” value was “induced”. Besides, the “tumor volume and weight, PC-3 xenografts” value (IP, twice weekly, 35 days) is listed as “effectively inhibited”.

The values above are taken from patent publication US20240009174A1, “METHODS FOR DISRUPTING MITOCHONDRIAL UNFOLDED PROTEIN RESPONSE” (Health Research, Inc., priority 2020, published 2024).
